Consider 2 compounds from PMC9323733, “Efficacy of Vafidemstat in Experimental Autoimmune Encephalomyelitis Highlights the KDM1A/RCOR1/HDAC Epigenetic Axis in Multiple Sclerosis” (Pharmaceutics, 2022).

For assay [1], the system named is spinal cord and brain of EAE mice. As to the kind of experiment: qRT-PCR validation of microarray biomarkers, spinal cord and brain of EAE mice. In kind it is in vivo, mouse. The method, then: We evaluated differences in gene expression induced by the treatment using real-time PCR and by microarray hybridization analysis. First, total RNA was isolated from brain and spinal cord segments from EAE mice using Qiazol™ and the RNeasy MiniKit™ extraction kit (Qiagen). Evaluation of RNA quality was performed with the Agilent 2100 bioanalyzer and NanoDrop™ ND-1000 (Thermo Scientific, Dartford, Kent, UK). After DNAse I treatment, RNA (1 µg/sample) was reverse transcribed using RevertAid First strand cDNA Synthesis kit (Fermentas) and random hexamer primers. For evaluating the expression of the inflammatory markers TNFα, IL-1β, IP10, IL-4, and CCL5, real time PCR was performed by using iQ SYBR Green Supermix (Bio-Rad, Feldkirchen, Germany) according to manufacturer’s instructions in a BIORAD CFX96 thermal cycler. Primer sequences and PCR conditions are indicated in Supplementary Materials Table S3. […]
For the gene expression studies, data from microarray assays were normalized by modified nonlinear Q-splines normalization method and Log2(Sample/Vehicle) values calculated without background correction (which permits robust selection of differentially expressed genes yet may lead to sub-estimation of the magnitude of change for genes expressed near the detection limit). Differential expression was assessed with the proprietary Polyphemus software using robust statistics on the average technical replicates (3 replicates/gene oligo datapoint) after removing eventual outlier points (caused by dust or array imperfections). […] The p values were calculated after outlier elimination based on the absolute value of the regularized t-statistics, which uses a Bayesian framework to derive the algorithm, using internal replicated controls to assess the minimum technical variability of the process. Correlation between gene expression changes induced by different treatments was analysed by calculating the Pearson correlation coefficient r using the Log2(Treatment/Veh) values for all genes expressed above background level (n). […]
On the technique in general: In qPCR the cycle at which signal appears reflects the starting amount.

For assay [2], the system named is spleen cells isolated from mice suffering chronic EAE. As to the kind of experiment: Encephalitogenic T-cell response in vitro, spleen cells of EAE mice re-stimulated with MOG35–55. In kind it is cell-based, mouse. As to conditions: 0.5 µM ORY-2001, MOG35–55 15 µM. As for the experimental part:
Spleen and draining lymph node (DLN) cells (10^6/mL) collected from EAE mice were stimulated in complete medium (RPMI 1640 containing 10% FBS, 50 µM 2-ME, 2 mM L-glutamine, 100 U/mL penicillin, and 100 µg/mL streptomycin) with 15 µM MOG35–55. After 48 h, cytokine (IL-4, TNF-alpha, IFN-gamma) and chemokine (IP-10 and MCP1) contents in culture supernatants were determined by sandwich ELISAs using capture/biotinylated detection Abs according to the manufacturer’s recommendations. The antibodies used are indicated in Supplementary Materials Table S4. Cell proliferation was evaluated after 72 h by adding 2.5 µCi/mL tritiated-thymidine during the last 8 h of culture and determining cpm incorporation in a Microbeta counter. We used T cell activation with an anti-CD3 […] antibody (1 µg/mL) or ConA (2.5 µg/mL) as controls of unspecific polyclonal stimulation.
Data are the mean ± SEM with dots representing individual values of biologically independent animals.

The next assay concerns SH-SY5Y cells. The assay is described as follows: Human H3 acetylation assay (Western blot), cellular HDAC activity. The format is cell-based. Conditions: 1 and 0.1 µM, 2 and 6 h. The method, then:
Human H3 acetylation assays: for the determination of global and K9-specific acetylation levels, 500,000 SH-SY5Y cells were seeded in 6-well plates in DMEM/F12 1:1 (Sigma), supplemented with 2 mM glutamine (LabClinics) and 10% FBS (Sigma) and incubated at 37 °C and 5% CO2 in a humid atmosphere. […] After 2 and 6 h of treatment, cells were harvested and centrifuged at 250× g for 4 min at room temperature and cell pellets used for total histone extraction with EpiQuik Total Histone Extraction Kit (Epigentek, Farmingdale, NY, USA) following manufacturer’s instructions. 1 µg of histone extracts were run in MOPS buffer in 12% PAGE (Life Technologies, Carlsbad, CA, USA) and transferred with the iBlot system to nitrocellulose membranes. Transferred blots were stained with the Ponceau S solution (Sigma) and scanned with an Epson Perfection V600 Photo Scanner. Membranes were blocked in blocking buffer (5% skimmed milk in PBS-Tween 0.1%) for 1 h at room temperature, and after blocking blots were incubated with rabbit polyclonal anti-H3K9Ac (1:2000 dilution, Abcam, Cambridge, UK) and rabbit polyclonal anti-H3ac (K9 + K14 + K18 + K23 + K27) (1:2000 dilution, Abcam) overnight at 4 °C in ablocking buffer. […]

Regarding `Nc1nnc(CN[C@@H]2C[C@H]2c2ccc(OCc3ccccc3)cc2)o1` [ORY-2001], the “Ttr upregulation in spinal cord, check by qRT-PCR” value in assay [1] (increased pooled value came from a single outlier sample) is “discarded as a biomarker”. The “expression of Saa3, Aif1 and Gbp2 (qRT-PCR)” value in assay [1] (spinal cord and brain, effector phase) is “downregulated the inflammatory biomarkers Saa3, Aif1 and Gbp2”. Also, the “expression of Ccl5, Ip10 and Tnf-alpha (qRT-PCR)” value in assay [1] (spinal cord and brain, sub-chronic period) was “downregulated”. In addition, in assay [2], the “IL-10 and IL-4 levels” value is “increasing the levels of the anti-inflammatory mediators IL-10 and IL-4”; the “MOG35–55-induced proliferation and cytokine production” value is “deactivated the MOG35–55 -induced proliferation and cytokine production in vitro”.

With `CCCCCCCCc1ccc(CCC(N)(CO)CO)cc1` [FTY720, Fingolimod, reference compound], the “impact on cellular HDAC activity (acetylated H3 or H3K9 levels)” value in the assay with SH-SY5Y cells is given as “unable to confirm the previous studies reporting that FTY720 or FTY720-P had any significant impact”.
